In one series the test system is Ba/F3 EGFR S768I. Nature of the series: Proliferation inhibition, CellTiter Glo, Ba/F3 EGFR S768I. The conditions noted are these: for IC50: Mus musculus, Ba/F3 EGFR S768I stably transfected cells, 72 hours. It counts as cell-based, mouse. The source says: (§1) The proliferation inhibition activity of the compound (furmonertinib mesilate) on four cells of Ba/F3 EGFR G719S, Ba/F3 EGFR G724S, Ba/F3 EGFR S768I, and Ba/F3 EGFR L861Q stably expressing EGFR rare mutation proteins, one cell of Ba/F3 EGFR G719S/T263P stably expressing EGFR double mutation proteins, and three cells of Ba/F3 ERBB2 A775_G776insYVMA, Ba/F3 ERBB2 V777_G778insGC, and Ba/F3 ERBB2 P780_Y781insGSP stably expressing different ERBB2 exon 20 insertion mutation proteins in mouse pro-B cells Ba/F3 in vitro was determined by the CellTiter Glo method.
(§2) Cell source: Ba/F3 EGFR G719S, Ba/F3 EGFR G724S, Ba/F3 EGFR S768I, Ba/F3 EGFR L861Q, Ba/F3 EGFR G719S/T263P, Ba/F3 ERBB2 A775_G776insYVMA, Ba/F3 ERBB2 V777_G778insGC, Ba/F3 ERBB2 P780_Y781insGSP cells were provided by KYinno Biotechnology (Beijing) Co., Ltd.
(§3) Ba/F3 EGFR G719S, Ba/F3 EGFR G724S, Ba/F3 EGFR S768I, Ba/F3 EGFR L861Q, Ba/F3 EGFR G719S/T263P, Ba/F3 ERBB2 A775_G776insYVMA, Ba/F3 ERBB2 V777_G778insGC, Ba/F3 ERBB2 P780_Y781insGSP cells were cultivated in RPMI1640 complete culture medium containing 10% fetal bovine serum. […]
(§4) The CellTiter-Glo reagent (a luciferase ATP bioluminescence detection reagent, commercially available from Promega) was thawed, the 96-well plates inoculated with the cells were taken out from the CO2 constant temperature incubator, and equilibrated to room temperature (about 30 minutes), 100 μL CellTiter-Glo reagent was added to each well, the cells were lyzed by shaking on an orbital shaker for 5 minutes, […] at room temperature for 20 minutes to wait for the luminescence intensity to stabilize, then the luminescence intensity (Lum) was determined with a microplate reader. The cell survival rate at each concentration of the compound was calculated.
(§5) The data were analyzed using GraphPad Prism 7.0 software, fitted with nonlinear S-curve regression to give a dose-effect curve, and IC50 values were calculated therefrom, as shown in Table 1.

For a further series, the system named is Ba/F3 EGFR G724S. The series can be described thus: Proliferation inhibition, CellTiter Glo, Ba/F3 EGFR G724S. In kind it is cell-based, mouse. The conditions noted are these: for IC50: Mus musculus, Ba/F3 EGFR G724S stably transfected cells, 72 hours.
Source text: as §1, §2, §3, §4, §5
For orientation: Cellular ATP, detected with luciferase, serves as a proxy for viable cell number.

The test system of series [1] is Ba/F3 ERBB2 V777_G778insGC. The series can be described thus: Proliferation inhibition, CellTiter Glo, Ba/F3 ERBB2 V777_G778insGC. It counts as cell-based, mouse. The note with it: for IC50: Mus musculus, BaF3, Ba/F3 ERBB2 V777_G778insGC stably transfected cells, 72 hours.
Source text: as §1, §2, §3, §4, §5

In series [2] the test system is Ba/F3 ERBB2 P780_Y781insGSP. Nature of the series: Proliferation inhibition, CellTiter Glo, Ba/F3 ERBB2 P780_Y781insGSP. In kind it is cell-based, mouse. The note with it: for IC50: Mus musculus, BaF3, Ba/F3 ERBB2 P780_Y781insGSP stably transfected cells, 72 hours.
Source text: as §1, §2, §3, §4, §5

A further series deals with Ba/F3 EGFR G719S/T263P. Nature of the series: Proliferation inhibition, CellTiter Glo, Ba/F3 EGFR G719S/T263P. It counts as cell-based, mouse. The conditions noted are these: for IC50: Mus musculus, Ba/F3 EGFR G719S/T263P stably transfected cells, 72 hours.
Source text: as §1, §2, §3, §4, §5

The test system of a further series is Ba/F3 EGFR L861Q. Nature of the series: Proliferation inhibition, CellTiter Glo, Ba/F3 EGFR L861Q. In kind it is cell-based, mouse. The conditions noted are these: for IC50: Mus musculus, Ba/F3 EGFR L861Q stably transfected cells, 72 hours.
Source text: as §1, §2, §3, §4, §5

The test system of series [3] is Ba/F3 ERBB2 A775_G776insYVMA. Nature of the series: Proliferation inhibition, CellTiter Glo, Ba/F3 ERBB2 A775_G776insYVMA. It counts as cell-based, mouse. The note with it: for IC50: Mus musculus, BaF3, Ba/F3 ERBB2 A775_G776insYVMA stably transfected cells, 72 hours.
Source text: as §1, §2, §3, §4, §5

The next series concerns Ba/F3 EGFR G719S. The series can be described thus: Proliferation inhibition, CellTiter Glo, Ba/F3 EGFR G719S. In kind it is cell-based, mouse. The note with it: for IC50: Mus musculus, Ba/F3 EGFR G719S stably transfected cells, 72 hours.
Source text: as §1, §2, §3, §4, §5

Series [4] has as its system Ba/F3 ERBB2 A775_G776insYVMA subcutaneous xenograft. The series can be described thus: Anti-tumor effect in Ba/F3 ERBB2 A775_G776insYVMA CDX tumor model. The note with it: 30 mg/kg oral once per day for two weeks.
Source text: Experimental animals: BALB/c nude mice, female, 8-9 weeks (mouse week-old when tumor cells were inoculated), and weighing 13.7-17.7 g, purchased from the Shanghai branch of Beijing Vital River Laboratory Animal Technology Co., Ltd.
Animal modeling and random grouping: Ba/F3 ERBB2 A775_G776insYVMA cells were cultivated, amplified to two T175 cm^2 culture flasks, cells were collected, and resuspended and counted in serum-free medium DMEM with the addition of a matrix gel at 1:1, and inoculated at 2×10^6 cells/0.1 mL in Balb/c nude mouse right front scapular subcutaneous. When the average tumor volume was about 160 mm^3, the animals were randomly grouped into three experiment groups according to the tumor size. Each group contained 6 mice. The grouping day was defined as Day 0, i.e., DO.
The experimental scheme: BALB/c nude mice were subcutaneously inoculated with Ba/F3 ERBB2 A775_G776insYVMA cells, and a cell line heterograft tumor model was established. The experiment was divided into 30 mg/kg group of AZD9291, 30 mg/kg group of furmonertinib mesilate and a vehicle control group, wherein each group contained 6 animals, orally administered with the administration volume of 10 uL/g, and the vehicle control group was administered with the same amount of vehicle, the administration was carried out once per day and lasted for two weeks. During the whole experiment, the body weight and the tumor sizes of the mice were measured twice each week, and whether or not the presence of toxic reactions was observed.
Tumor Volume (TV) was calculated by: TV=½×a×b×b, where a and b represented the length and the width of tumor, respectively.
The conditions of series [5]: orally once per day, 20 mg-240 mg; cited from earlier work.
Series [6] deals with EGFR T790M positive advanced non-small cell lung cancer. The conditions noted are these: oral 80 mg daily dose, patients with progressive disease after prior systematic anti-tumor therapy; cited from earlier work.
Series [7] concerns Ba/F3 ERBB2 V777_G778insGC xenograft. The series can be described thus: Anti-tumor effect in Ba/F3 ERBB2 V777_G778insGC (KC-1410) cell xenograft model. In kind it is in vivo. The note with it: for anti-tumor activity: B-NDG mice. The source says: This study was used for evaluate the anti-tumor efficacy of three compounds alone in the female (B-NDG) immune deficiency mice bearing tumors of Ba/F3 ERBB2 V777_G778insGC engineered cells.
Experimental animals: B-NDG mice, female, 6-8 weeks, and weighing 18-20 g.
Animal modeling and random grouping: Ba/F3 ERBB2 V777_G778insGC cells were cultivated, cells were collected, and re-suspended and counted in serum-free medium, the re-suspended cells with the addition of a matrigel at 1:1 were subcutaneous inoculated at 1×10^6 cells/0.1 mL in B-NDG mice. When the average tumor volume was about 80-120 mm^3, the animals were randomly grouped into four experiment groups according to the tumor size. Each group contained 12 mice.
The experimental scheme: B-NDG mice were subcutaneously inoculated with Ba/F3 ERBB2 V777_G778insGC cells to establish a cell-line-derived xenograft model.
The curves for the tumor volume change of four experimental groups were shown in FIG. 3, and the curves for the body weight change of four experimental groups were shown in FIG. 4.

As usually defined, the IC50 is the midpoint of a concentration-inhibition curve. A higher IC50 goes with weaker potency. Take `C=CC(=O)Nc1cc(Nc2nccc(-c3cn(C)c4ccccc34)n2)c(OC)cc1N(C)CCN(C)C` [AZD9291, reference compound]: the IC50 with Ba/F3 EGFR S768I came out at 137 nM; in the series with Ba/F3 EGFR G724S it was 139 nM; in series [1], 77 nM; in series [2] it was 96 nM; in the series on Ba/F3 EGFR G719S/T263P it was 191 nM; with Ba/F3 EGFR L861Q, 41 nM. Moreover, the IC50 was found to be 489 nM in series [3] and 68 nM with Ba/F3 EGFR G719S.

As to `C=CC(=O)Nc1cc(Nc2nccc(-c3cn(C)c4ccccc34)n2)c(OCC(F)(F)F)nc1N(C)CCN(C)C` [furmonertinib mesilate, N-{2-{[2-(dimethylamino)ethyl](methyl)amino}-6-(2,2,2-trifluoroethoxy)-5-{[4-(1-methyl-1H-indol-3-yl)pyrimidin-2-yl]amino}pyridin-3-yl}acrylamide], the proliferation inhibition activity result in the series on Ba/F3 EGFR S768I (Ba/F3 EGFR S768I, result in words) is “good proliferation inhibition activity”; in the series on Ba/F3 EGFR G724S (Ba/F3 EGFR G724S, result in words), “good proliferation inhibition activity”; in series [1] (Ba/F3 ERBB2 V777_G778insGC, result in words), “good proliferation inhibition activity”; in series [2] (Ba/F3 ERBB2 P780_Y781insGSP, result in words), “good proliferation inhibition activity”; in the series with Ba/F3 EGFR G719S/T263P (Ba/F3 EGFR G719S/T263P, result in words), “good proliferation inhibition activity”; in the series on Ba/F3 EGFR L861Q (Ba/F3 EGFR L861Q, result in words), “good proliferation inhibition activity”. The proliferation inhibition activity result in series [3] (Ba/F3 ERBB2 A775_G776insYVMA, result in words) is reported as “good proliferation inhibition activity”; in the series with Ba/F3 EGFR G719S (Ba/F3 EGFR G719S, result in words), “good proliferation inhibition activity”. The IC50 with Ba/F3 EGFR S768I worked out at 33 nM; in the series on Ba/F3 EGFR G724S, 35 nM; in series [1] it was 25 nM; in [2] it was 33 nM; with Ba/F3 EGFR G719S/T263P it was 37 nM; in the series on Ba/F3 EGFR L861Q, 13 nM. The IC50 in [3] was found to be 118 nM; in the series with Ba/F3 EGFR G719S, 19 nM. For the same compound, the “effect on the body weight of nude mice” value in [4] was “less effect on the body weight”. For the same compound, the safety result in [4] was “better safety”; in [7] (15, 30 and 50 mg/kg groups), “good safety”. The anti-tumor effect entry in [4] (BALB/c female nude mice) was “good anti-tumor effect”; in series [6], “relatively good anti-tumor effect”. For the same compound, the “adverse events of subjects” value in [5] was “mild or moderate”. The dose-limiting toxicity entry in series [5] is “does not occur”. Moreover, the dose-related toxic reaction result in series [5] is recorded as “does not occur”. Besides, the tolerance and safety entry in [5] is given as “good”. The figures for the anti-tumor activity entry in series [7] (15 mg/kg oral once per day for two weeks), in [7] (30 mg/kg oral once per day for two weeks) and in series [7] (50 mg/kg oral once per day for two weeks) were “moderate anti-tumor activity”, “extremely significant anti-tumor activity” and “extremely significant anti-tumor activity”, respectively. For the same compound, the “effect on the body weight of mice” value in series [7] (15, 30 and 50 mg/kg groups) is recorded as “little effect on the body weight”.

The values above are taken from patent US20250017927A1, “PHARMACEUTICAL COMPOSITION AND USE THEREOF” (SHANGHAI ALLIST PHARMACEUTICALS CO., LTD., priority 2021, published 2025).
